“Also recorded” adds a separate entry of the source.
Tests used:
[1] = biological target: GGTase I (K-Ras4B as substrate) (Homo sapiens, UniProt P49354+P53609); test: GGTase I filter-binding assay, K-Ras4B as substrate (library screens); assay type: biochemical; settings: pilot screen 100 μM; library screen 50 μM
Protocol: The pilot library was screened for inhibitors of protein geranylgeranyltransferase type I. Protein prenyltransferase assays were carried out by using filter binding. Two different substrates, RhoA and K-Ras4B, were used for the assay. RhoA ends with the CaaL motif and is an exclusive substrate for GGTase I, while K-Ras4B ends with the CaaX motif and is modified by both GGTase I and FTase.
In the assay, a fixed concentration of 100 μM was used and the results are plotted for the inhibition of RhoA (vertical axis) as well as for K-Ras4B (horizontal axis). […] They are 2,6-diaryl-N-tosyl-1,2,5,6-tetrahydropyridine-3-carboxylic acids, except P2-D5 that is missing an aryl substituent at C2.
The % activity of GGTase I was determined as follows: a working solution that contained each compound in DMSO at the concentration of 1 mM was prepared. The working solution was added to GGTase I reaction mixture so that the final concentration of the compound is 50 μM. GGTase I activity was assayed by incubating [^3H]GGPP with K-Ras4B or RhoA protein in the presence of GGTase I and examining radioactivity incorporated into the substrate protein by spotting onto a filter paper. After washing with TCA, ethanol and acetone, the radioactivity retained on the filter was determined by the use of a scintillation counter. GGTase I activity in the presence of DMSO was taken as a 100% value and the activity in the presence of the compound was shown as percent activity compared with the 100% value. […] For 6-aryl-4-mercapto-N-sulfonyl-piperidine-3-carboxylic acid 11 the 4-mercapto substituent appeared critical to endowing GGTase inhibitory activity. […] 4-Chlorobenzylthio substituent was the next best; 12 compounds out of 21 containing the 4-chlorobenzylthio moiety were active. 4-Benzylthio substituent was also good; 7 piperidines out of 21 bearing 4-benzylthio group were active. […] 19 imines (C15>C12=C41>C40>C01=C11>C05=C10=C30=C35=C37=C38>C02, C03, C04, C06, C39=C43) out of 21 appeared in the GGTIs. […] This corresponds to 47 6-aryl-4-mercapto-N-sulfonyl-piperidine-3-carboxylic acids out of 357 compounds.
A collection of 138 heterocycles was screened for their ability to inhibit the activity of human GGTase-I to geranylgeranylate K-Ras4B or RhoA. Purified GGTase-I was incubated with its substrate protein K-Ras4B or RhoA, [^3H]GGPP, and the 138 compounds. After 30 min, the degree of incorporation of tritiated geranylgeranyl groups was measured using a scintillation counter.

GGTase-I = biological target: T1, GGTase-I (Rattus norvegicus, UniProt P53610+Q04631); test: In vitro GGTase-I enzyme assay (IC50, kinetics); assay type: biochemical
T1 construct: purchased JENA BIOSCIENCE
Procedure, shortened: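 Rat GGTase-I (50 nM) with 0.5 μM [3H]-GGPP and 2 μM MBP-RhoA in Tris-HCl pH 7.5, MgCl2, ZnCl2, DTT, 2.5% DMSO, 10 min at 30 °C; radiolabel incorporation by TCA filter binding and scintillation. Kinetics: 5 min reactions varying GGPP or RhoA at fixed other components.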

FTase = biological target: T2, FTase (Rattus norvegicus, UniProt Q02293+Q04631); test: In vitro FTase assay (K-Ras4B substrate, [3H]FPP); assay type: biochemical
T2 construct: purchased JENA BIOSCIENCE
Text: To further characterize the pilot library, inhibitors of protein farnesyltransferase were identified. This was accomplished by using K-Ras4B as a substrate protein, tritiated farnesylpyrophosphate ([^3H]FPP) and protein farnesyltransferase. See Finegold, A. A., Johnson, D. I., Farnsworth, C. C., Gelb, M. H., Judd, S. R., Glomset, J. A. and Tamanoi, F. (1991) Protein geranylgeranyltransferase of Saccharomyces cerevisiae is specific for Cys-Xaa-Xaa-Leu motif and requires the CDC43 gene product but not the DPR1 gene product. Proc. Natl. Acad. Sci. USA 88, 4448-4452. […] On the other hand, the structure of the compounds P1-F11, P2-B7 and P2-E9 resemble those of GGTIs. The FTI P1-F11 resembles the GGTI P1-F10, while the FTI P2-B7 resembles the GGTI P2-C10. The FTI P2-E9 is similar to the GGTI P2-G3. Similarity of some GGTI and FTI compounds may point to common structural features between the two closely related enzymes. As described before, FTase and GGTase I have similar three-dimensional structures and a shared alpha subunit. On the other hand, FTase specific inhibitors may recognize a region(s) that is different between the two enzymes.
Examples 2-8 illustrate assays of bioactivity. These methods are applicable to the compounds of the present invention having the particular linkers and scaffolds described herein, to determine their activity. […] Varying concentrations of the two compounds were added to each enzyme reaction. The FTase (protein farnesyltransferase) assay was carried out using K-Ras4B as a substrate protein, FTase (JENA Bioscience, San Diego, Calif.) and [3H]farnesyl pyrophosphate. Incubation was for 30 min at 37° C.
GGTase-I and FTase activities were determined by following the incorporation of radiolabeled isoprenoid [^3H]-geranylgeranyl or [^3H]-farnesyl into substrate proteins. FTase or GGTase-I (50 nM) were used to initiate reactions containing 0.4 μM of [^3H]-FPP or 0.5 μM of [^3H]-GGPP and 2 μM of MBP-tagged substrates (K-Ras4B for FTase; RhoA for GGTase-I) in 20 μl of buffer {50 mM Tris-HCl (pH 7.5), 10 mM MgCl2, […] and 5 mM DTT}. Inhibitors were added at the indicated concentrations. The final DMSO concentration was 2.5% for all samples.
Reactions were carried out for 10 min at 30° C. The reaction mixture was spotted onto a filter paper, treated with 10% trichloroacetic acid (TCA) followed by ethanol and acetone washing. The filter was counted using a scintillation counter. Kinetic assays in which the GGPP concentration was varied employed fixed concentrations of GGTase-I and RhoA, and reactions were carried out for 5 min. Similarly, fixed concentrations of GGTase-I and GGPP were used when the amount of RhoA was varied.

[2] = tested on: H-Ras farnesylation in NIH3T3 cells; test: H-Ras mobility shift immunoblot in NIH3T3 cells; assay type: cell-based; settings: 48 hours
Protocol: K562 cells were treated with modified compounds for 72 hours and then cell number was counted. IC50 values of cell viability relative to the DMSO were measured. […] Data represent the mean+/−S.D. of two measurements from two independent experiments. *, P<0.05 compared with the value for DMSO. […] Whole cell lysates from cells treated with DMSO, P5-H6, P61-A6, GGTI (GGTI-298), FTI (BMS-225975) or RabGGTI (P49-F6) for 48 hours were prepared and processed for immunoblot analysis using antibody against unprenylated form of Rap1 (C: upper panel), Total-Rap1 (C: middle panel), H-Ras (D: upper panel), Rab5b (E: upper panel) or actin (C, D, and E: lower panel). The immunoblots shown represent two independent experiments for each treatment.
This was examined by using a farnesylated protein H-Ras.

RabGGTase = biological target: T3, RabGGTase (Rattus norvegicus, UniProt Q08602+Q08603); test: In vitro RabGGTase (GGTase-II) assay with REP-1; assay type: biochemical; settings: up to 10,000 nM
T3 construct: purchased JENA BIOSCIENCE
T3 sequence (Q08602 1-567): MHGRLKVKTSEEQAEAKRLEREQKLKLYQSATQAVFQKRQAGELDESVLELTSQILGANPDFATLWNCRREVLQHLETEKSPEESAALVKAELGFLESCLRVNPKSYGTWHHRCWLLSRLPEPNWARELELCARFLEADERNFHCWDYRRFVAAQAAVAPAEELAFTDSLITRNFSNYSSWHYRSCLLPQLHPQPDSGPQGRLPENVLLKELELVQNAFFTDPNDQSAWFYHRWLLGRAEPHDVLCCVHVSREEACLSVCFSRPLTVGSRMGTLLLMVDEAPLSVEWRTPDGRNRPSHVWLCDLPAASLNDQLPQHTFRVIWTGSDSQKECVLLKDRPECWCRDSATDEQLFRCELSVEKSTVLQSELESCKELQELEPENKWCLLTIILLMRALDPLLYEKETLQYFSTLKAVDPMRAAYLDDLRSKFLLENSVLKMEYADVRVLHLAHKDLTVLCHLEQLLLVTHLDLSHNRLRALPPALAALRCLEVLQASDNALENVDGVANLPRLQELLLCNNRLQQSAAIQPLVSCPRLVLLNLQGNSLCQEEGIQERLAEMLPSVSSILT
T3 sequence (Q08603 1-331): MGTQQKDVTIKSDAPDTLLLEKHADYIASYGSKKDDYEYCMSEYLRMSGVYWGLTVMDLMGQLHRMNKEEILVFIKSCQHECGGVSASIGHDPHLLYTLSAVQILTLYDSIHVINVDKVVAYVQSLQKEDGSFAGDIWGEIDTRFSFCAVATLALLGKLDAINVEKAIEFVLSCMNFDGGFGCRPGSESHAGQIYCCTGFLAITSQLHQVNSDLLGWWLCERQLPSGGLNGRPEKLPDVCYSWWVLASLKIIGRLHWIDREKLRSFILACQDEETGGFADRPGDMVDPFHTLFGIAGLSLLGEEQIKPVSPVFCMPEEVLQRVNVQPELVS
Protocol: The GGTase-I assay was carried out using RhoA as a substrate protein, GGTase-I (JENA Bioscience) and [3H]geranylgeranyl pyrophosphate. Incubation was for 30 min at 37° C. GGTase-II (or RabGGTase) assay was carried out using YPTI as a substrate protein, GGTase-II (Calbiochem, San Diego, Calif.) plus REP1 (Calbiochem) and [3H]geranylgeranyl pyrophosphate. Incubation was for 30 min at 37° C. FIGS. 20D-20F show the three dimensional structure of GGTase I (D), FTsse (E) and GGTase II (F) which can be obtained from X-ray diffraction studies of protein crystals.
For RabGGTase assays, the reaction contained the following components in 20 μl; 0.625 μl of [^3H]-GGPP (0.7 μM), 25 nM RabGGTase, 0.6 μM REP-1, 0.6 μM purified Rab7 or Ypt1 protein, 40 mM HEPES (pH 7.5), 150 mM NaCl, 5 mM DTT, 3 mM MgCl2 and 0.3% CHAPS. Reactions were carried out for 20 min at 37° C. and the products were analyzed as described above for the GGTase-I reaction. Graphing and Michaelis-Menten analysis were performed using Prism version5 (GraphPad, San Diego Calif.).

K562 cells = test: K562 cell growth inhibition; assay type: cell-based, human; settings: 72 hours
Procedure, shortened: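 Human erythroleukemia K562 cells exposed to compound for 72 hours. Cell number measured with CCK-8 and viability expressed relative to the DMSO control.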

[3] = tested on: Rap1 geranylgeranylation in NIH3T3 cells; test: Unprenylated Rap1 immunoblot in NIH3T3 cells; assay type: cell-based; settings: 48 hours
Protocol: The inhibition of GGTase-I catalyzed protein geranylgeranylation was assessed by examining the accumulation of unprenylated Rap1. To measure the level of unprenylated Rap1, cells were cultured in DMEM plus 10% (v/v) FBS overnight, and then DMSO or appropriate inhibitors were added. Incubation was continued for 48 hours. The cells were harvested and lysed in lysis buffer (20 mM Tris-HCl, pH 7.5, 150 mM NaCl, 1 mM EDTA, 1% NP-40 and 1× Protease Inhibitor Cocktail). Whole cell lysates of NIH3T3 cells were electrophoresed on a 12% SDS-PAGE, transferred to nitrocellulose membranes and immunoblotted with the antibody against unprenylated form of Rap1 (Santa Cruz Biotechnology catalog number sc-1482, goat), total-Rap1 (Santa Cruz: sc-65) or actin (Sigma: A4700). Actin was used as a loading control.

Row | inhibition of GGTase I (FIG. 16 controls) (GGTase-I) | inhibition of FTase activity (FIG. 16) (FTase; P3-D9, P3-E5: concentration increased to 100 (unit not given)) | specificity among GGTase-I, FTase and GGTase-II (GGTase-I; FIGS. 20A-20C, varying concentrations) | Ki (GGTase-I; Michaelis-Menten analysis) | IC50 (GGTase-I; Tables 5, 14, read-out: In vitro (enzyme assay) IC50, GGTase I) | inhibition of FTase activity (FTase; concentration increased to 50,000 nM) | inhibition of RabGGTase (RabGGTase) | IC50 (K562 cells; Homo sapiens, K562, FIG. 36A, read-out: IC50, inhibition of proliferation of K562 cells) | SMILES | relative inhibition of RhoA-driven versus K-Ras4B-driven GGTase I activity [1] | mobility shift of H-Ras (protein farnesylation) [2] | mode of GGTase-I inhibition with respect to GGPP (GGTase-I; varying GGPP, fixed RhoA) | mode of GGTase-I inhibition with respect to the protein substrate (RhoA) (GGTase-I; varying RhoA, fixed GGPP) | inhibition of proliferation of K562 cells (K562 cells; FIG. 23) | appearance of the unprenylated (unprocessed) Rap1 band [3] | appearance of the unprenylated Rap1 band at 2.5 μM ([3]; 2.5 μM)
1 | inhibits GGTase I | little inhibition |  |  |  |  |  |  | COC(=O)[C@H](CC(C)C)NC(=O)c1ccc(NC[C@@H](N)CS)cc1-c1cccc2ccccc12 [GGTI-298, reference compound] | inhibit RhoA-driven GGTase I activity slightly better than K-Ras4B-driven GGTase I activity | no such mobility shift |  |  |  |  | 
2 |  |  | specifically inhibit GGTase I | 408 ± 32 nM | 466 nM | no significant inhibition | little inhibition | 20000 nM | Cc1ccccc1S(=O)(=O)N1[C@@H](c2ccc(Cl)cc2)C(C(=O)O)=C[C@H]1C(C)(C)C (relative stereo) [P5-H6] |  |  | do not compete with GGPP; also recorded: uncompetitive inhibitors | compete with a substrate protein; also recorded: competitive inhibitors | inhibit the growth of the K562 cells | in a dose dependent manner; also recorded: inhibits Rap1 geranylgeranylation | not seen
3 |  |  |  |  |  |  |  |  | Cn1cncc1CN1C[C@@H](Cc2ccccc2)N(S(=O)(=O)c2cccs2)Cc2cc(C#N)ccc21 [BMS-225975] |  | slowed the mobility |  |  |  |  | 
